Publication PMC3408433, “Selective Cytotoxicity of Amidinopiperidine Based Compounds Towards Burkitt’s Lymphoma Cells Involves Proteasome Inhibition” (PLoS ONE, 2012)
pIC50, pKi: −log10 of the molar value.

What was measured:
[1] = tested on: NFκB transcriptional activity in Ramos-Blue cells; assay: Quanti-blue assay, NFκB transcriptional activity (SEAP reporter); assay type: cell-based, human; conditions: 50 µM pretreatment 1 h, TNF-α 100 ng/mL, 8 h
Description: Ramos-Blue™ cells (Invivogen), which stably express an NF-κB/AP-1-inducible secreted embryonic alkaline phosphate (SEAP) reporter construct, were assayed for NFκB transcriptional activity changes upon pretreating them with the compound of interest (50 µM) for 1 h and subsequently stimulating them with recombinant TNF-α (100 ng/mL). SEAP activity was determined in the supernatant in accordance with the manufacturer’s instructions. Briefly, to 200 µL of QUANTI-Blue regent 20 µL of cell supernatant was added and incubated at 37°C for 3 h. Abosorbance was measured on microplate reader Tecan Safire^2 at 640 nm.

[2] = tested on: Ramos cells; assay: Annexin V/7-AAD assay; assay type: cell-based, human; conditions: 16 h; for percentage of Annexin V positive cells: 50 µM, untreated 4% (Figure 5A)
Description: We used a PE Annexin V Apoptosis Detection Kit I (BD Biosciences) in accordance with the manufacturer’s instructions. Put briefly, Ramos cells were, following their treatment with the compound of interest, washed with cold PBS and resuspended in 1× binding buffer at a […] concentration. 100 µL of cell suspension was transferred to a 5 mL tube and 5 µL of both PE Annexin V and 7-AAD was added. The suspension was gently vortexed and incubated for 15 min at room temperature in the dark. Following this, 400 µL of 1× binding buffer was added and samples were analysed using a FACScalibur flow cytometer.

[3] = tested on: p105 and IκBα in Ramos cells; assay: Western blot analysis of phospho-p105, p105, phospho-IκB and IκB; assay type: cell-based, human; conditions: total level of both molecules remained the same
Description: (§1) Ramos cells were seeded in 6-well culture plates at a concentration of 1×10^6 cells/mL and treated with the compound of interest or corresponding vehicle for 1 h, 2 h or 6 h. After the indicated time points, cells were harvested, washed in ice-cold PBS and lysed in modified RIPA buffer (50 mM Tris-HCl, pH 7.4, 150 mM NaCl, 1% NP−40, 0.25% Na-deoxycholate, 1 mM EDTA, 1 µg/mL aprotinin, 1 mM PMSF and 1× Halt Phosphatase inhibitor cocktail (Thermo Scientific, Pierce Biotechnology, IL, USA)). The lysates were sonicated, rocked on ice for 30 min and centrifuged at 13,000 rpm at 4°C for 15 min. Protein samples were electrophoresed in SDS-polyacrylamide gels and then transferred to nitrocellulose membranes. The primary antibodies used were against ubiquitin, phospho-IκBα, IκBα, p65 and caspase-3 (Cell Signaling, Danvers/MA, USA), and p105/p50 (Santa Cruz Biotechnology, Inc., Santa Cruz/CA, USA), and ß-actin (Sigma-Aldrich). Following incubation with the primary antibody, membranes were washed six times and incubated for 1 h at room temperature with the corresponding dilution of the appropriate secondary antibody conjugated with horseradish peroxidase (Upstate, Temecula, CA, USA). The immunoreactivity of respective proteins of interest was determined by chemiluminescence using the SuperSignal West Femto substrate (Pierce, IL, USA), in accordance with the manufacturer's instructions. […]

[4] = target: α-chymotrypsin (Bos taurus, UniProt P00766); assay: α-Chymotrypsin inhibition assay
Description: In short, a 1 nM solution of α-chymotrypsin was mixed with various concentrations of the substrate Suc-Ala-Ala-Pro-Phe-AMC. All the solutions were prepared in 144 mM Tris–HCl, pH 7.8. Substrate hydrolysis was monitored at 30°C on an automated Tecan Safire^2 microplate reader (Tecan, Mannedorf/Zürich, Switzerland). The initial rates of the reactions (ΔF/Δt) were measured immediately after the addition of the substrate (within 200 s) and plotted versus substrate concentration with nonlinear regression to fit a Michaelis-Menten plot. The curve fit and kinetic parameters (Km and v max) were calculated using GraphPad PRISM version 5.0 software (GraphPad Software, Inc., CA, USA). […] The initial velocities of the hydrolysis reactions were measured under the same conditions as described for the determination of Km. 50 µl of α-chymotrypsin solution was added to 50 µl of each inhibitor solution (prepared in 144 mM Tris–HCl, pH 7.8; final concentration 1 nM) and incubated at 30°C for 15 min. The reaction was initiated with the addition of 100 µl of substrate. […] The Ki values were determined as mean values of all measurements.

[5] = tested on: Ramos cells; assay: Cell cycle analysis (PI staining); assay type: cell-based, human; conditions: for cell cycle distribution / percentage of cells in the sub-G1 phase (< 2n): 50 µM, 24 h; for percentage of cells in the sub-G1 phase (< 2n): PI staining; for number of hypodiploid cells: 48 h treatment, untreated 3.4%
Description: Ramos cells (5×10^5 cells) were treated with the compound of interest for 24 h. The cells were then washed with PBS and subjected to fixation with 80% ethanol at –20°C for 15 min. Fixated cells were pelleted by centrifugation and rehydrated in 5 mL of PBS for 15 min at room temperature. Collected cells were resuspended in 500 µL staining buffer (3 µM propidium iodide, 100 mM Tris, pH 7.4, 150 mM NaCl, 1 mM CaCl2, 0.5 mM MgCl2, 0.1% Nonident P-40). After 15 min of incubation, samples were analysed on a FACScalibur and evaluated using FlowJo software (BD bioscience, Franklin Lakes/NJ, USA).

[6] = tested on: Ramos Burkitt’s lymphoma cells; assay: Metabolic activity assay (MTS), Ramos; assay type: cell-based; conditions: Homo sapiens, 24 h, read-out: IC50, inhibition of proliferation (metabolic activity)
[7] = tested on: p65 and p50 translocation in Ramos cells; assay: Subcellular fractionation and Western blot of p65 and p50; assay type: cell-based, human; conditions: 50 µM
Description: as §1

[8] = tested on: ubiquitinated proteins in Ramos cells; assay: Western blot analysis of ubiquitinated proteins; assay type: cell-based, human; conditions: 6 h treatment
Description: as §1

[9] = presence of zVADfmk 50 µM (Figure 5D)

Row | SMILES | reduction of TNF-α-induced NFκB activity (SEAP) [1] | percentage of Annexin V positive cells [2] [%] | levels of p105 and IκBα (phosphorylated forms) [3] | pKi [4] | cell cycle distribution [5] | percentage of cells in the sub-G1 phase (< 2n) [5] [%] | number of hypodiploid cells [5] [%] | pIC50 [6] | translocation of p65 and p50 from the cytoplasm into the nucleus [7] | polyubiquitinated proteins [8] | Annexin V positive cells (lower right quadrant) ([2]; absence of zVADfmk (Figure 5D)) [%] | living cells (lower left quadrant, Annexin V/7-AAD) ([2]; absence of zVADfmk (Figure 5D)) [%] | Annexin V positive cells (lower right quadrant) [2, 9] [%] | living cells (lower left quadrant, Annexin V/7-AAD) [2, 9] [%]
1 | N=C(N)N1CCC(CN(NS(=O)(=O)c2ccc3ccccc3c2)C(=O)N2CCCCC2)CC1 [Compound 15] | over 60% | 57 | accumulation of the phosphorylated forms of p105 and IκBα | 4.56 | accumulation of cells in the S phase | 8.7 | 42.5 | 4.74 | no translocation of p65 and p50 | – | – | – | – | –
2 | N=C(N)N1CCC(CN(NS(=O)(=O)c2ccc3ccccc3c2)C(=O)N2CCCCCC2)CC1 [Compound 16] | over 60% | 39 | – | 4.54 | accumulation of cells in the S phase | 22.7 | 51.1 | 4.66 | – | increased amount of polyubiquitinated proteins | 30 | 62 | 11 | 82
